Read-outs that look alike come from different tables or passages of the source. Some results are limits rather than exact numbers.

One series has as its target recombinant human ACC1 (Homo sapiens (Human), UniProt Q13085). The series can be described thus: Measurement of inhibitory activity of human ACC1 (MALDI-TOF MS). Type of series: biochemical. Conditions: read-out: IC50 hACC1. An excerpt: A cDNA encoding human ACC1 protein (1 amino acid residue to 2346 amino acid residues from the N-terminus) was cloned from a human liver cDNA library (BioChain Institute Inc.), myc tag and His-tag sequences were introduced at the 3′ end, and then inserted into pIEXBAC3 (Novagen). A recombinant baculovirus was produced in accordance with the protocol for Flash BACGOLD (Oxford Expression Technologies Ltd.), and Sf-9 cells were infected therewith to express human ACC1 protein. The recovered cells were crushed, filtered through a filter, and then subjected to Ni affinity chromatography and anion exchange chromatography. Fractions containing human ACC1 protein were collected to obtain recombinant human ACC1.
The recombinant human ACC1 and the recombinant human ACC2 obtained from the above Preparation Examples were preincubated in an assay buffer (50 mM HEPES-KOH (pH 7.4), 10 mM magnesium chloride, 6 to 10 mM potassium citrate, 4 mM glutathione reduced form, and 1.5 mg/ml bovine serum albumin) for 1 hour. Then, 5 μL of the pre-incubated enzyme solution and 5 μL of a substrate solution (50 mM HEPES-KOH (pH 7.4), 1 mM ATP, 0.8 mM acetyl-CoA, and 25 to 50 mM potassium bicarbonate) were added to a 384-well microplate into which 0.2 μl of each of solutions of the compound of the present invention (DMSO had been dispensed, and the mixture was centrifuged and shaken, and then incubated in a wet box at room temperature for 1 to 3 hours. After incubation, the enzymatic reaction was stopped by addition of EDTA, and then the sample was co-crystallized with an α-cyano-4-hydroxy cinnamic acid (CHCA) matrix on a MALDI target plate, and measurement was performed in a reflector negative mode using a matrix-assisted laser desorption ionization-time-of-flight mass spectrometer (MALDI-TOF MS). Deprotonated ions of the substrate acetyl-CoA (AcCoA) and the reaction product malonyl-CoA (MalCoA) were detected, and the intensity of each signal was used to calculate a conversion rate to malonyl-CoA or succinyl-CoA, i.e., intensity of [MalCoA-H]—/(intensity of [MalCoA-H]-+intensity of [AcCoA.H].). […] The potassium citrate concentration in the assay buffer, the potassium bicarbonate concentration in the substrate solution, and the incubation time were adjusted within the above concentrations or reaction times for each lot of the enzyme to be used.

A short description of series [1]: Metabolic stability test, rat. Type of series: in vitro ADME. Conditions: 30 minutes.
Series [2] in a line: Metabolic stability test, human liver microsomes. Conditions: 37° C., 30 minutes, NADPH. The format is in vitro ADME. On the procedure:
Commercially available pooled human liver microsomes were reacted with the compound of the present invention for a given time. A residual rate was calculated by comparison between the reacted sample and the unreacted sample to evaluate a degree at which the compound of the present invention is metabolized in the liver.
The compound was reacted at 37° C. for 0 minutes or 30 minutes in the presence of 1 mmol/L NADPH in 0.2 mL of a buffer (50 mmol/L Tris-HCl pH 7.4, 150 mmol/L potassium chloride, and 10 mmol/L magnesium chloride) containing 0.5 mg protein/mL of the human liver microsomes (oxidative reaction). After the reaction, 50 μL of the reaction solution was added to 100 μL of a solution of methanol/acetonitrile=1/1 (v/v) and mixed, and the mixture was centrifuged at 3000 rpm for 15 minutes. The compound of the present invention in the centrifuged supernatant was quantified by LC/MS/MS or solid-phase extraction (SPE)/MS. The amount of the compound of the present invention remained after the reaction was calculated with the amount of the compound at 0 minutes of the reaction defined as 100%.
Background: Microsomes from liver hold many membrane-bound enzymes, among them those of drug oxidation.

The next series addresses recombinant human ACC2 (Homo sapiens (Human), UniProt O00763). The series can be described thus: Measurement of inhibitory activity of human ACC2 (MALDI-TOF MS). The format is biochemical. Conditions: read-out: IC50 hACC2. An excerpt: A cDNA encoding human ACC2 protein (27 amino acid residues to 2458 amino acid residues from the N-terminus) was cloned from a human kidney cDNA library (Clontech Laboratories, Inc.), a His-tag sequence was introduced at the 5′ end, and then inserted into pFastBac1 (Invitrogen). A recombinant baculovirus was produced in accordance with the protocol for a Bac-to-Bac baculovirus expression system (Invitrogen), and Sf-9 cells were infected therewith to express human ACC2 protein. The recovered cells were crushed, filtered through a filter, and then subjected to Ni affinity chromatography and anion exchange chromatography. Fractions containing human ACC2 protein were collected to obtain recombinant human ACC2.
The recombinant human ACC1 and the recombinant human ACC2 obtained from the above Preparation Examples were preincubated in an assay buffer (50 mM HEPES-KOH (pH 7.4), 10 mM magnesium chloride, 6 to 10 mM potassium citrate, 4 mM glutathione reduced form, and 1.5 mg/ml bovine serum albumin) for 1 hour. […] Deprotonated ions of the substrate acetyl-CoA (AcCoA) and the reaction product malonyl-CoA (MalCoA) were detected, and the intensity of each signal was used to calculate a conversion rate to malonyl-CoA or succinyl-CoA, i.e., intensity of [MalCoA-H]—/(intensity of [MalCoA-H]-+intensity of [AcCoA.H].). […] The potassium citrate concentration in the assay buffer, the potassium bicarbonate concentration in the substrate solution, and the incubation time were adjusted within the above concentrations or reaction times for each lot of the enzyme to be used.

The test system of a further series is NAFLD patients. Conditions: cited from earlier work.
The subject of a further series is healthy subjects. Conditions: repeated administration to healthy subjects; cited from earlier work.

recombinant human ACC2, sequence (O00763 27-2458): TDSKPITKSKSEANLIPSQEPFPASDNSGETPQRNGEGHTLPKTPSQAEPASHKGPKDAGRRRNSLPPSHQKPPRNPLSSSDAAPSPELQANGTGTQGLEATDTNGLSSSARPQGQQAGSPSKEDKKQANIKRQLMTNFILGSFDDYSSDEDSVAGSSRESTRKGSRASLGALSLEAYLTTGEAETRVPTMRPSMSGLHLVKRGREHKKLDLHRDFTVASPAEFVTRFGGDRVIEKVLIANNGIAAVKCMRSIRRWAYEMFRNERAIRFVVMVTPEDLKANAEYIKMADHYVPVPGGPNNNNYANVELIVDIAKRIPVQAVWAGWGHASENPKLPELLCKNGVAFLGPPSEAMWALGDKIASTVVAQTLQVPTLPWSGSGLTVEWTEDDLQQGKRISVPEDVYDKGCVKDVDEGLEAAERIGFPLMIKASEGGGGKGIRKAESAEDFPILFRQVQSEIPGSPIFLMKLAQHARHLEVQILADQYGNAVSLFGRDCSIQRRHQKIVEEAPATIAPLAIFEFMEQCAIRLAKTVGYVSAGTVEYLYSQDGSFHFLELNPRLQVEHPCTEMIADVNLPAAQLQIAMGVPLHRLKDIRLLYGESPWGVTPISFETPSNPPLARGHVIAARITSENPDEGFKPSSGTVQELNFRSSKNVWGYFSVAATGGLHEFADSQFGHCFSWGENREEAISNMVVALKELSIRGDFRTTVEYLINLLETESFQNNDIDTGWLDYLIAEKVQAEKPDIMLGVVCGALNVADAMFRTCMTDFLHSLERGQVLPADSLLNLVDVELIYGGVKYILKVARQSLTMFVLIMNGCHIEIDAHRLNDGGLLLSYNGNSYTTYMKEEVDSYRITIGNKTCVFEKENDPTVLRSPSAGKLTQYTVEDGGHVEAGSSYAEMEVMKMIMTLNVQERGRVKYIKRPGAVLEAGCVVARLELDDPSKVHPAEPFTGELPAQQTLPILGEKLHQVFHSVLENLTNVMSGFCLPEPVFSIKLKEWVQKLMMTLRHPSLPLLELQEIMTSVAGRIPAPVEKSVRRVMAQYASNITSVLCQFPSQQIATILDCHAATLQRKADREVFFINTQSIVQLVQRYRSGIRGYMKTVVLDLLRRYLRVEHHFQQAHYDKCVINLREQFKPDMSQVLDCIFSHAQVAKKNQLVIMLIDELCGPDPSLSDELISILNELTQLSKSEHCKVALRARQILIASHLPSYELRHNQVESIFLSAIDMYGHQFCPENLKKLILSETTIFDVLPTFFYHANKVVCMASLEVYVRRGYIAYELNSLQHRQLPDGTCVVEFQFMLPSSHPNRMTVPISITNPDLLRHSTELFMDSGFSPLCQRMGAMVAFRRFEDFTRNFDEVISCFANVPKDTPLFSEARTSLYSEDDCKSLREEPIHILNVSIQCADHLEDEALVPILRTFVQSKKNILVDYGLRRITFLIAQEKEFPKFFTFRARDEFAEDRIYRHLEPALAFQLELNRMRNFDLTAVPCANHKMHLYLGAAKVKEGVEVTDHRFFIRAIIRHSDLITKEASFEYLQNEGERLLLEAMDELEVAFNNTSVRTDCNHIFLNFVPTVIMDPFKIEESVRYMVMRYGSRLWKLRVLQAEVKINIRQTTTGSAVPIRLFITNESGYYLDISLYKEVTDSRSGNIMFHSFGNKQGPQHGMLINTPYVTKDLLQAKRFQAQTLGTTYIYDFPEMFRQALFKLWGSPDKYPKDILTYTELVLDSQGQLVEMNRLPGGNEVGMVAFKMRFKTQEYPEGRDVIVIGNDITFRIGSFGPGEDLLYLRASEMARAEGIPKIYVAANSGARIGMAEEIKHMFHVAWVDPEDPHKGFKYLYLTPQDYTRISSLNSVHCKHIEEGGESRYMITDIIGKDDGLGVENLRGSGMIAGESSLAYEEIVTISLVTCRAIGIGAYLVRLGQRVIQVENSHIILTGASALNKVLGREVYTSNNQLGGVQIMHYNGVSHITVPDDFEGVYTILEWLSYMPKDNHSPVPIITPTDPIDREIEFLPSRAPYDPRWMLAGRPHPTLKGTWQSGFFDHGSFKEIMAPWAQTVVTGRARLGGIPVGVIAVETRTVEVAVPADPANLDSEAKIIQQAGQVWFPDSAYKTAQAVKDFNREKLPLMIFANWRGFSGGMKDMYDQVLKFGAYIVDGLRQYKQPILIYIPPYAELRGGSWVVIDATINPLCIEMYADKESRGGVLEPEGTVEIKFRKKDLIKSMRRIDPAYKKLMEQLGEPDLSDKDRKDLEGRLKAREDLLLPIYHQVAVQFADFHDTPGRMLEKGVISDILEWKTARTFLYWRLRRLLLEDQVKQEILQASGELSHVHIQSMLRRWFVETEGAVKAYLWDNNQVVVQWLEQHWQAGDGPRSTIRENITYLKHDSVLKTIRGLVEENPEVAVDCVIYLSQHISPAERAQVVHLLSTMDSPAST

Broadly, the IC50 is the concentration at which inhibition is half-maximal. `CC(=O)N[C@@H](C)COC1CCC(Oc2nc3c(F)cc(OC4CCC4)cc3n2C)CC1` (stereo partly drawn) [Compound I-1]: the IC50 at recombinant human ACC1 amounted to 0.32 µM.

For the compound `CC(=O)N[C@@H](C)COC1CCC(Oc2nc3c(Cl)cc(OC4CC4)cc3n2C)CC1` (stereo partly drawn) [Compound I-3], at recombinant human ACC1, the IC50 came to 2.8 µM. In series [1], the “Remaining amount of compound, Rat” value is on record as 82.6%. Moreover, in series [2], the “Remaining amount of compound, Human” value was determined as 80.3%.

For `CC(=O)N[C@@H](CF)COC1CCC(Oc2nc3c(F)cc(OC4CC4)cc3n2C)CC1` (stereo partly drawn) [Compound I-4], the results for the IC50 on recombinant human ACC1 and at recombinant human ACC2 were 2.7 µM and 0.0047 µM, respectively. Moreover, in series [1], the “Remaining amount of compound, Rat” value is reported as 87.3%. In addition, in series [2], the “Remaining amount of compound, Human” value is listed as 93.4%.

On to `Cn1c(OC2CCC(OC[C@H](CF)NC(N)=O)CC2)nc2c(F)cc(OC3CC3)cc21` (stereo partly drawn) [Compound I-5], for which the IC50 was 6.9 µM at recombinant human ACC1 and 0.0089 µM at recombinant human ACC2. The “Remaining amount of compound, Rat” value in series [1] amounted to 83.4%. Further, in series [2], the “Remaining amount of compound, Human” value is 98.9%.

Regarding `CC(=O)N[C@@H](C)C(F)(F)C[C@H]1CCC(Oc2nc3c(F)cc(OCC(F)F)c(F)c3n2C)CO1` (stereo partly drawn) [Compound I-7], the IC50 was 25 µM on recombinant human ACC1 and 0.18 µM on recombinant human ACC2. Also, the “Remaining amount of compound, Rat” value in series [1] was 74.7%. In addition, in series [2], the “Remaining amount of compound, Human” value is on record as 89.1%.

`C[C@@H](COC1CCC(Oc2nc3c(Cl)cc(OC4CC4)cc3n2C)CC1)NC(N)=O` (stereo partly drawn) [Compound I-8]: the IC50 came to 6.2 µM on recombinant human ACC1 and 0.017 µM at recombinant human ACC2. The “Remaining amount of compound, Rat” value in series [1] is 85.4%. Moreover, in series [2], the “Remaining amount of compound, Human” value is 83.6%.

On to `CC(=O)N[C@@H](C)CC(F)(F)[C@@H]1CCC(Oc2nc3c(F)cc(OCC(F)F)c(F)c3n2C)CO1` (stereo partly drawn) [Compound I-10], for which the IC50 at recombinant human ACC1 was over 100 µM; at recombinant human ACC2 it was 0.089 µM.

As for `C[C@@H](CCC1OCC(Oc2nc3c(F)cc(OCC(F)F)c(F)c3n2C)CO1)NC(N)=O` (stereo partly drawn) [Compound I-11], the IC50 is 7 µM on recombinant human ACC1 and 0.0096 µM on recombinant human ACC2. Besides, in series [1], the “Remaining amount of compound, Rat” value is 94.5%. In addition, the “Remaining amount of compound, Human” value in series [2] is listed as 95.8%.

With `CC(=O)N[C@@H](C)CCC1CCC(Oc2nc3c(F)cc(OC4CC4)cc3n2C)CC1` (stereo partly drawn) [Compound I-15], the values for the IC50 on recombinant human ACC1 and on recombinant human ACC2 were 1.7 µM and 0.0038 µM, respectively. In addition, the “Remaining amount of compound, Rat” value in series [1] came out at 76.2%. Besides, the “Remaining amount of compound, Human” value in series [2] was found to be 80.2%.

Turning to `COc1cc(C(=O)N2CCC3(CC2)CC(=O)c2cc(-c4cncc(C(=O)O)c4)ccc2O3)cc2c1c(C)cn2C1CC1` [MK-4074], in the series with NAFLD patients, the Plasma triglyceride concentration result is listed as “elevated”.

Take `Cc1nc2ccc(C(=O)N3CCC4(CC3)CC(=O)c3c(cnn3C(C)C)C4)cc2[nH]1` [PF-05175157]: the platelet concentration entry in the series on healthy subjects is given as “reduced”.

On to `COc1ccccc1[C@H](Cn1c(=O)n(C(C)(C)C(=O)O)c(=O)c2c(C)c(-c3ncco3)sc21)OC1CCOCC1` [firsocostat], for which, in the series on NAFLD patients (phase II study over 12 weeks), the Plasma triglyceride concentration entry is given as “elevated”.

Values taken from patent US20250041279A1, “THERAPEUTIC MEDICINE FOR HEART DISEASE OR SKELETAL MUSCLE DISEASE” (SHIONOGI & CO., LTD., priority 2021, published 2025).
